Measured values taken from patent publication US20030143633A1, “Factors participating in degranulation of mast cells, dnas encoding the same, method of screening of these factors and the inhibitors” (priority 2000, published 2003).

B1: mG#101: recombinant mouse first Rab protein, SEQ ID NO: 1 (protein)
chain: MLLGDSGVGKTCFLIQFKDGAFLSGTFIATVGIDFRNKVVTVDGXRVKLQIWDTAGQERFRSVTHAYYRDAQALLLLYDITNKSSFDNIRAWLTEIHEYAQRDVVIMLLGNKADXSSERVIRSEDGETLAREYGVPFXETSAKTGMNVELAFLAIAKELKYRAGXQXDEPSFQIRDYVESQKKRSSCCSFV
modifications: Mus musculus or Homo sapiens; (45) Ala or Val.
B2: mG#102: recombinant mouse second Rab protein, SEQ ID NO: 4 (protein)
chain: MQTPHKEHLYKLLVIGDLGVGKTSIIKRYVHQNFSSHYRATIGVDFALKVLHWDPETVVRLQLWDIAGQERFGNMTRVYYREAMGAFIVFDVTRPATFEAVAKWKNDLDSKLXLPNGKPVSVVLLANKCDQGKDVLMNNGLKMDQFCKEHGFVGWFETSAKENINIDEASRCLVKHILANECDLXESIEPDXVKPHLTSXKVXSCSGCAKS
modifications: Mus musculus or Homo sapiens; (113) Thr or Ser.

Experiments:
[1] = test system: interaction between mG#102 and mA#10283; experiment: Two-hybrid recombinant yeast #102 strain growth in histidine defective medium; type: cell-based, S. cerevisiae; settings: histidine defective SD medium
VT strain [2] = experiment: Two-hybrid positive control recombinant yeast VT strain growth (nonspecific effect control); type: cell-based, S. cerevisiae
[3] = test system: interaction between mG#102 and mA#10283; experiment: Two-hybrid recombinant yeast #102 strain growth in histidine defective medium; type: cell-based, S. cerevisiae; settings: for specific suppression of #102 strain growth (in words): compared with VT strain; for Suppression (% control) of growth of yeast strain, #102 strain: turbidity 590 nm, 18-20 hr
Description: (§1) Two expression vectors respectively incorporating mG#102 in pAS2-1 vector and mA#10283 in pACT2 vector were introduced into S. cerevisiae CG1945 strain to give a recombinant yeast #102 strain (see Example 3). As a control, recombinant yeast VT strain into which plasmid for positive control (pVA3-1, pTD1-1) of MATCHMAKER Two-Hybrid System 2 had been introduced was prepared. The culture media of #102 strain and VT strain that reached confluent by shake culture overnight at 30° C. in an SD medium supplemented with histidine were diluted 200-fold with a fresh histidine defective SD medium (containing 1 mM 3-AT) and dispensed to a 96 well plate by 0.09 ml/well. A PBS solution containing a compound whose effect is desired to be examined was added to each well, PBS was added to the well of 100% control, and 1M 3-AT-containing PBS solution was added to the well of 0% control respectively in a volume of 0.01 ml/well and mixed by a plate shaker MicroMixer E-36 (manufactured by TAITEC). Then, after static culture at 30° C. for 18-20 hr, culture media were suspended in a plate shaker, and turbidity (absorbance at 590 nm) was measured with a 96 well plate spectrophotometer Multiskan BICHROMATIC (manufactured by Labsystems) The data of the turbidity measured were evaluated on conversion to % control based on the turbidity data of 100% control and 0% control. When a common effect appears between the #102 strain and the VT strain, it was considered a nonspecific effect on the two-hybrid system rather than an effect on the interaction between mG#102 and mA#10283.
(§2) Using the system shown in Example 7, 0.09 ml each of #102 strain yeast or VT strain yeast (control) was placed in each well of a 96 well plate, and a PBS solution containing a particular compound which is unknown as to its effect on the interaction between mG#102 and mA#10283 was added by 0.01 ml, which was followed by culture at 30° C. for 18-20 hr. Then, the culture medium was suspended in a plate shaker and the turbidity (absorbance at 590 nm) was measured with a 96 well plate absorbance meter. The turbidity of the well to which PBS solution without the compound was added was taken as 100% control and the turbidity of the well to which PBS solution containing 3-AT (final concentration 100 mM) instead of the compound was added was taken as 0% control, and the effect of the compound was evaluated by conversion to percentage.

[4] = test system: mouse bone marrow-derived mast cells (BMMC); experiment: IgE/DNP-HSA antigen-induced degranulation of BMMC (hexosaminidase release); type: cell-based; settings: for Suppression (% control) of degranulation of mast cell: fluorescence of control group without compound = 100%
Description: BMMC prepared by the method shown in Example 1 was suspended in 10% FBS-containing RPMI at a concentration of 3×10^6/ml. To this BMMC was added a mouse monoclonal anti-DNP IgE antibody (manufactured by YAMASA) at 3 μg/ml, and the mixture was stood at room temperature for 30 min. Then, BMMC treated with an IgE antibody was washed with buffer A (133 mM NaCl, 5 mM KCl, 0.9 mM NaH2PO4, 8 mM glucose, 1 mg/ml BSA, 0.01 mM CaCl2, 20 mM HEPES, pH 7.4) and suspended in buffer A containing 1 mM CaCl2 at a concentration of 3×10^6/ml. This BMMC suspension (0.1 ml/well) was added in a 96 well multiplate and a solution of the compound to be examined (0.05 ml/well) and a DNP-HSA (manufactured by Sigma) solution (40 ng/ml, 0.05 ml/well) as an antigen were added. After standing at room temperature for 30 min, the mixture was centrifuged at 1000 rpm for 5 min and the supernatant was recovered for the 96 well multiplate by 0.05 ml/well. To this supernatant was added a 4-methylumbelliferyl-2-acetamide-2-deoxy-β-D-glucopyranoside (manufactured by Funakoshi Co., Ltd., substrate of hexosaminidase) solution (1 mM; in 0.2 M citrate buffer (pH 4.5)) at 0.05 ml/well. After standing at 37° C. for 90 min, 1M Tris solution (0.15 ml) was added to stop the reaction, and the amount of fluorescence in each well was measured by fluoroscan (manufactured by Labo Systems). The suppressive effect of the compound on the degranulation of BMMC was calculated based on the amount of fluorescence in the control group free of addition of the compound as 100%. As a control compound, tranilast was used.

VT strain [5] = experiment: Two-hybrid positive control recombinant yeast VT strain growth (nonspecific effect control); type: cell-based, S. cerevisiae; settings: turbidity 590 nm, 18-20 hr
Description: as §1, §2

BMMC = BMMC digitonin degranulation system (histamine release); type: cell-based, mouse; settings: protein added to digitonin-permeabilised BMMC, CaCl2 stimulation, histamine RIA
Description: The recombinant protein was added to a BMMC digitonin degranulation system to examine the effect. BMMC was washed twice with a buffer having the following composition to give a suspension at 2×10^6 cells/ml and dispensed to a 96-well U-bottom plate by 0.05 ml/well. Then, mG#101 or mG#102 recombinant protein (0.05 ml/well) was added. Furthermore, 4.5 μM digitonin was added by 0.05 ml/well and the plate was stood at room temperature for 5 min. Thereafter 4 mM CaCl2 was added by 0.05 ml/well and the plate was stood at room temperature for 10 min. After standing, the concentration of histamine liberated in the supernatant was determined by a histamine RIA kit (Eiken Chemical Co., Ltd.). buffer composition:
The recombinant protein was added to the digitonin degranulation system (see Example 5) and the effect was examined.

[6] = compound concentration 0.3 μg/ml
[7] = compound concentration 10 μg/ml
[8] = compound concentration 30 μg/ml

Molecule | Suppression (% control) of degranulation of mast cell ([4]; concentration 1 μg/ml) [% control] | Suppression (% control) of degranulation of mast cell ([4]; concentration 3 μg/ml) [% control] | Suppression (% control) of degranulation of mast cell ([4]; concentration 10 μg/ml) [% control] | Suppression (% control) of degranulation of mast cell ([4]; concentration 30 μg/ml) [% control] | Suppression (% control) of degranulation of mast cell ([4]; concentration 100 μg/ml) [% control] | Suppression (% control) of growth of yeast strain, VT strain (VT strain [5]; compound concentration 1 μg/ml) [% control] | Suppression (% control) of growth of yeast strain, VT strain (VT strain [5]; compound concentration 3 μg/ml) [% control] | Suppression (% control) of growth of yeast strain, VT strain (VT strain [5]; [7]) [% control] | specific suppression of #102 strain growth (in words) [3] | Suppression (% control) of growth of yeast strain, #102 strain ([3]; compound concentration 1 μg/ml) [% control] | Suppression (% control) of growth of yeast strain, #102 strain ([3]; compound concentration 3 μg/ml) [% control] | Suppression (% control) of growth of yeast strain, #102 strain [3, 7] [% control] | effect of recombinant protein on degranulation (in words) (BMMC) | also measured
Nc1nc[nH]n1 [Formula 3-AT, 3-amino-1,2,4-triazole] |  |  |  |  |  |  |  |  |  |  |  |  |  | concentration of 3-AT wherein the recombinant yeast strain grows in a reporter gene (histidine synthase)-dependent manner [1]: 1 to 10 mM; growth of recombinant yeast strain with 100 mM 3-AT (in words) (VT strain [2]; 100 mM 3-AT): neither recombinant yeast strain could grow; concentration of 3-AT wherein the recombinant yeast strain grows in a reporter gene (histidine synthase)-dependent manner (VT strain [2]; histidine defective SD medium): 1 to 10 mM; growth of recombinant yeast strain with 100 mM 3-AT (in words) ([3]; #102 strain, 100 mM 3-AT): neither recombinant yeast strain could grow
CC(C)=NNc1nc(-c2ccc(-c3ccccc3)cc2)cs1 [Formula [III], acetone-4-(4-phenyl)phenyl-1,3-thiazol-2-yl-hydrazone] | 102 | 87 | 39 | 20 | 6 | 85 | 77 | 63 | specifically suppressed #1022 strain in a dose-dependent manner | 57 | 4 | 1 |  | suppression of degranulation of mast cells (in words) [4]: suppressed degranulation of mast cells in a dose-dependent manner; Suppression (% control) of growth of yeast strain, VT strain (VT strain [5]; [6]): 99 % control; Suppression (% control) of growth of yeast strain, #102 strain [3, 6]: 99 % control
O=C(N/N=C/c1ccc([N+](=O)[O-])o1)c1ccccc1Br [Formula [IV], 5-nitro-2-furaldehyde-2-brombenzoylhydrazne] |  |  |  |  |  | 102 | 102 | 98 | specifically suppressed #1022 strain in a dose-dependent manner | 99 | 99 | 36 |  | Suppression (% control) of growth of yeast strain, VT strain (VT strain [5]; [8]): 63 % control; Suppression (% control) of growth of yeast strain, #102 strain [3, 8]: −2 % control
COc1ccc(/C=C/C(=O)Nc2ccccc2C(=O)O)cc1OC [tranilast, reference compound] | 96 | 90 | 78 | 52 | 22 |  |  |  |  |  |  |  |  | 
B1 |  |  |  |  |  |  |  |  |  |  |  |  | inhibited degranulation in a concentration dependent manner | 
B2 |  |  |  |  |  |  |  |  |  |  |  |  | inhibited degranulation in a concentration dependent manner | 
